Experimental data from patent US20250223303A1, “TRICYCLIC BORONIC ACID DERIVATIVE, AND PREPARATION METHOD THEREFOR AND APPLICATION THEREOF” (priority 2021, published 2025).

Assays:
[1] = tested on: Acinetobacter baumannii ARLG-1809 OXA-23; test: MIC test of compounds in combination with antibiotics, Acinetobacter baumannii ARLG-1809; conditions: for MIC of biapenem in combination with compound, Acinetobacter baumannii ARLG-1809 OXA-23: Biapenem + compound (8 μg/mL); for MIC of meropenem in combination with compound, Acinetobacter baumannii ARLG-1809 OXA-23: Meropenem + compound (8 μg/mL)
[2] = tested on: Acinetobacter baumannii ARLG-1791 OXA-23; test: MIC test of compounds in combination with antibiotics, Acinetobacter baumannii ARLG-1791; conditions: for MIC of biapenem in combination with compound, Acinetobacter baumannii ARLG-1791 OXA-23: Biapenem + compound (8 μg/mL); for MIC of meropenem in combination with compound, Acinetobacter baumannii ARLG-1791 OXA-23: Meropenem + compound (8 μg/mL)
[3] = tested on: Klebsiella pneumoniae ARLG 1196; test: MIC test of compounds in combination with antibiotics, Klebsiella pneumoniae ARLG 1196; conditions: for MIC of biapenem in combination with compound, Klebsiella pneumoniae ARLG-1196 CTM-1 group, SHV, NDM, TEM: Biapenem + compound (8 μg/mL); for MIC of meropenem in combination with compound, Klebsiella pneumoniae ARLG-1196 CTM-1 group, SHV, NDM, TEM: Meropenem + compound (8 μg/mL)
[4] = tested on: Escherichia coli ARLG 2829; test: MIC test of compounds in combination with antibiotics, Escherichia coli ARLG 2829; conditions: for MIC of biapenem in combination with compound, Escherichia coli ARLG-2829 NDM-5, OXA-1: Biapenem + compound (8 μg/mL); for MIC of meropenem in combination with compound, Escherichia coli ARLG-2829 NDM-5, OXA-1: Meropenem + compound (8 μg/mL)
[5] = tested on: Acinetobacter baumannii ARLG-1852 OXA-23; test: MIC test of compounds in combination with antibiotics, Acinetobacter baumannii ARLG-1852; conditions: for MIC of biapenem in combination with compound, Acinetobacter baumannii ARLG-1852 OXA-23: Biapenem + compound (8 μg/mL); for MIC of meropenem in combination with compound, Acinetobacter baumannii ARLG-1852 OXA-23: Meropenem + compound (8 μg/mL)
[6] = tested on: Acinetobacter baumannii ARLG-1853 OXA-23; test: MIC test of compounds in combination with antibiotics, Acinetobacter baumannii ARLG-1853; conditions: for MIC of biapenem in combination with compound, Acinetobacter baumannii ARLG-1853 OXA-23: Biapenem + compound (8 μg/mL); for MIC of meropenem in combination with compound, Acinetobacter baumannii ARLG-1853 OXA-23: Meropenem + compound (8 μg/mL)
[7] = tested on: Klebsiella pneumoniae ATCC BAA-2470; test: MIC test of compounds in combination with antibiotics, Klebsiella pneumoniae ATCC BAA-2470; conditions: for MIC of biapenem in combination with compound, Klebsiella pneumoniae ATCC BAA-2470 NDM-1: Biapenem + compound (8 μg/mL); for MIC of meropenem in combination with compound, Klebsiella pneumoniae ATCC BAA-2470 NDM-1: Meropenem + compound (8 μg/mL)
[8] = tested on: Acinetobacter baumannii WX-AB013; test: MIC test of compounds in combination with antibiotics, Acinetobacter baumannii WX-AB013; conditions: for MIC of biapenem in combination with compound, Acinetobacter baumannii WX-AB013: Biapenem + compound (8 μg/mL); for MIC of meropenem in combination with compound, Acinetobacter baumannii WX-AB013: Meropenem + compound (8 μg/mL)
[9] = tested on: Acinetobacter baumannii WX-AB005; test: MIC test of compounds in combination with antibiotics, Acinetobacter baumannii WX-AB005; conditions: for MIC of biapenem in combination with compound, Acinetobacter baumannii WX-AB005: Biapenem + compound (8 μg/mL); for MIC of meropenem in combination with compound, Acinetobacter baumannii WX-AB005: Meropenem + compound (8 μg/mL)
[10] = tested on: Klebsiella pneumoniae ATCC BAA-1705; test: MIC test of compounds in combination with antibiotics, Klebsiella pneumoniae ATCC BAA-1705; conditions: for MIC of biapenem in combination with compound, Klebsiella pneumoniae ATCC BAA-1705 KPC-2: Biapenem + compound (8 μg/mL); for MIC of meropenem in combination with compound, Klebsiella pneumoniae ATCC BAA-1705 KPC-2: Meropenem + compound (8 μg/mL)

Row | MIC of biapenem in combination with compound, Acinetobacter baumannii ARLG-1809 OXA-23 [1] [µg/mL] | MIC of meropenem in combination with compound, Acinetobacter baumannii ARLG-1809 OXA-23 [1] [µg/mL] | MIC of biapenem in combination with compound, Acinetobacter baumannii ARLG-1791 OXA-23 [2] [µg/mL] | MIC of meropenem in combination with compound, Acinetobacter baumannii ARLG-1791 OXA-23 [2] [µg/mL] | MIC of biapenem in combination with compound, Klebsiella pneumoniae ARLG-1196 CTM-1 group, SHV, NDM, TEM [3] [µg/mL] | MIC of meropenem in combination with compound, Klebsiella pneumoniae ARLG-1196 CTM-1 group, SHV, NDM, TEM [3] [µg/mL] | MIC of biapenem in combination with compound, Escherichia coli ARLG-2829 NDM-5, OXA-1 [4] [µg/mL] | MIC of meropenem in combination with compound, Escherichia coli ARLG-2829 NDM-5, OXA-1 [4] [µg/mL] | MIC of biapenem in combination with compound, Acinetobacter baumannii ARLG-1852 OXA-23 [5] [µg/mL] | MIC of meropenem in combination with compound, Acinetobacter baumannii ARLG-1852 OXA-23 [5] [µg/mL] | MIC of biapenem in combination with compound, Acinetobacter baumannii ARLG-1853 OXA-23 [6] [µg/mL] | MIC of meropenem in combination with compound, Acinetobacter baumannii ARLG-1853 OXA-23 [6] [µg/mL] | MIC of biapenem in combination with compound, Klebsiella pneumoniae ATCC BAA-2470 NDM-1 [7] [µg/mL] | MIC of meropenem in combination with compound, Klebsiella pneumoniae ATCC BAA-2470 NDM-1 [7] [µg/mL] | MIC of biapenem in combination with compound, Acinetobacter baumannii WX-AB013 [8] [µg/mL] | MIC of meropenem in combination with compound, Acinetobacter baumannii WX-AB013 [8] [µg/mL] | MIC of biapenem in combination with compound, Acinetobacter baumannii WX-AB005 [9] [µg/mL] | MIC of meropenem in combination with compound, Acinetobacter baumannii WX-AB005 [9] [µg/mL] | MIC of biapenem in combination with compound, Klebsiella pneumoniae ATCC BAA-1705 KPC-2 [10] [µg/mL] | MIC of meropenem in combination with compound, Klebsiella pneumoniae ATCC BAA-1705 KPC-2 [10] [µg/mL] | SMILES
1 | 1 | 2 | 0.5 | 4 | 0.5 | 1 | 0.25 | 2 | 0.25 | 2 | 0.5 | 2 | 1 | 2 | 0.5 | 4 | 2 | 8 | 0.5 | 4 | CC(Sc1ccc2c(c1C(=O)O)OB(O)C1CC21)C1CC1 (single isomer, unassigned) [Compound 16-a]
2 | 2 | 4 | 1 | 8 | 0.5 | 8 | 0.5 | 16 | 0.5 | 4 | 1 | 8 | 1 | 16 | 2 | 4 | 4 | 8 | 0.25 | 2 | CC(Sc1ccc2c(c1C(=O)O)OB(O)C1CC21)C1CC1 (single isomer, unassigned) [Compound 16-b]
